Patent publication US20080063601A1, “Compositions and methods relating to polycystic kidney disease” (priority 2004, published 2008)
Like-named read-outs stand apart in the source and are kept apart here.

Legend:
[1] = test system: Pkd1^−/− murine model of polycystic kidney disease; format: in vivo, mice; details: for Alive Pkd1^−/− (birth): 0.07 mg/kg/day i.p. to pregnant mice; for Alive Pkd1^−/− (birth) / Ave. kidney wet weight Pkd1^−/−: E10.5 until birth; for Ave. kidney wet weight Pkd1^−/−: 0.07 mg/kg/day i.p.
Experimental: As per approved IACUC animal protocol, Pkd1^+/−/Pkd1^+/− mice were mated and pregnant mice were divided into control (DMSO) or experimental (triptolide) groups. A total volume of 100 μl of PBS with no more than 5% DMSO or DMSO/0.07 mg/kg/day triptolide was injected i.p. with a 28 G ½ insulin syringe. Mice were weighed and injected starting at E10.5 until birth. All pups were examined for length and developmental staging such as whisker formation. Kidneys were harvested, weighed, and fixed in 4% paraformaldehyde before histological preparation.
Kidneys were prepared by sagittal cross-sectioning and hematoxylin and eosin staining. All kidneys were photographed under the same magnification (4×) and cystic burden was computed using Image J analysis software (NIH). The area of cysts within the total area of the kidney (pixels) was calculated as a final percentage of cystic burden in the kidney. Immunohistochemical analysis of active caspase-3 was completed as per manufacturer's protocol.
Following successful Pkd1^+/− Pkd1^+/− matings, 0.07 mg/kg/day of triptolide or DMSO control was injected i.p. into pregnant mice until they gave birth. All pups were assessed for viability, length, developmental staging, and wet kidney weight. A total of 59 pups from DMSO treated females and 100 pups from triptolide treated females were examined for multiple parameters, such as genotypic distribution, developmental stage at time of birth, and average kidney weights (Table 1). […] Approximately 20% of all Pkd1^−/− mice were born alive from each treatment group. However, severe edematous abnormalities were obvious upon necropsy.

Pkd2^+/− cells = experiment: Viability of Pkd2+/− kidney epithelial cells; format: cell-based, murine; details: Pkd2+/− cells (one copy each of Pkd1 and Pkd2), 100 nM
polycystin-2 [2] = experiment: Fluo-4 calcium imaging in murine kidney epithelial cells; format: cell-based
Experimental: (§1) Cells were plated on coverslips and loaded with Fluo-4 (Molecular Probes) diluted in DMSO/pluronic for 30 minutes prior to imaging. Cells were perfused with a calcium imaging buffer (HEPES, NaCl, KCl, MgSO4 and CaCl2) ±100 nM triptolide. All cell traces are indicative of individual cellular fluorescence and calcium release. Data is presented as change of fluorescence over baseline control (before triptolide addition).
(§2) Murine kidney epithelial cell lines with differing polycystin-1 or polycystin-2 expression were used to establish a cellular based mechanism for polycystin-2 mediated calcium release in response to triptolide. Because the biochemical purification analysis identified polycystin-2 as a putative triptolide binding protein, Applicant assessed whether the calcium release was dependent upon expression of polycystin-1. Epithelial cells derived from the proximal nephric tubules of Pkd1^−/− mice were first examined to determine if calcium release was observed when 100 nM of triptolide was perfused through the imaging chamber. […] To strengthen the evidence that polycystin-2 was necessary for calcium release elicited by triptolide addition, it was reconstituted by stable expression of Pkd2 into the background of Pkd2^−/− cells, which were assessed for sensitivity to triptolide.

polycystin-2 [3] = molecular target: T1, polycystin-2 (Mus musculus, UniProt O35245); experiment: as above; format: cell-based; details: Pkd1^−/− cells, 100 nM perfused
T1 construct: endogenous in cells; host or cells: Pkd1-/- (PN24) murine kidney proximal tubule epithelial cells
T1 sequence (O35245 1-966): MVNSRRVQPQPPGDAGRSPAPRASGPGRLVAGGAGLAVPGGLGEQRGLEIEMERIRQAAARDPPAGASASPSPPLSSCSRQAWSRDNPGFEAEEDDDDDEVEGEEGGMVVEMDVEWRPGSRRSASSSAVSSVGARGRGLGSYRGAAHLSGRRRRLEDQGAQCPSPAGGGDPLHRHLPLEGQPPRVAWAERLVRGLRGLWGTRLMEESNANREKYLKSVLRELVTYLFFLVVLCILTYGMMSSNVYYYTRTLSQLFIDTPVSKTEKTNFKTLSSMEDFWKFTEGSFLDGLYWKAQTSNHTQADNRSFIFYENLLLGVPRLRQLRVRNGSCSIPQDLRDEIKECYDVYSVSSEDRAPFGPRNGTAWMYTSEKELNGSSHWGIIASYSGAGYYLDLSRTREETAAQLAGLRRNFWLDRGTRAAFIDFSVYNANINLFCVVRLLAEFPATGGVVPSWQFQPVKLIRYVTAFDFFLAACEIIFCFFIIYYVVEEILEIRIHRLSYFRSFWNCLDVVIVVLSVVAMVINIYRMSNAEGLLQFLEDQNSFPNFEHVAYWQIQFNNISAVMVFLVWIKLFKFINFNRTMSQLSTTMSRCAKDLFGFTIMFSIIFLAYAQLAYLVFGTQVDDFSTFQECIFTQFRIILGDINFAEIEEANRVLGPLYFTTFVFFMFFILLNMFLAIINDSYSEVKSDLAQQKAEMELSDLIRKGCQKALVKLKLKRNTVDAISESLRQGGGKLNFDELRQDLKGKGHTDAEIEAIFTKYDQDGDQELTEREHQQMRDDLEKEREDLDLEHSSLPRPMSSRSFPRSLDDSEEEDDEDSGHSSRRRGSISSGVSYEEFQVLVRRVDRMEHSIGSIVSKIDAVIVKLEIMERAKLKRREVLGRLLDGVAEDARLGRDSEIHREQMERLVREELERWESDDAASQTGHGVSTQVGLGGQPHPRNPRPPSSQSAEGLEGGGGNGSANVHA
Experimental: as §1, §2

[4] = Pkd1^−/− pups, 0.07 mg/kg/day i.p. during gestation

SMILES: CC(C)[C@]12O[C@H]1[C@@H]1O[C@]13[C@]1(O[C@H]1C[C@H]1C4=C(CC[C@@]13C)C(=O)OC4)[C@@H]2O [triptolide]
- Alive Pkd1^−/− (birth) [1]: Approximately 20%
- Alive Pkd1^−/− (birth) ([1]; listed as Triptolide): 4 (22%)
- Ave. kidney wet weight Pkd1^−/− ([1]; mean ± SE): 24.6 ± 0.8 mg
- Ave. kidney wet weight Pkd1^−/− ([1]; mean ± SE, listed as Triptolide): 21.8 ± 2.8 mg
- active caspase-3 immunoreactivity in kidney sections ([1]; Pkd1^−/− kidneys, 0.07 mg/kg/day i.p. during gestation): did not show any significant activation of the caspase pathway
- diameter of cyst lumens on average [1, 4]: smaller
- maximum cyst burden [1, 4]: 25%
- cystic burden (cyst area as percentage of total kidney area), average ([1]; Pkd1^−/− pups, 0.07 mg/kg/day i.p. during gestation, mean ± SE): 15±2.1%
- wet kidney weight or overall size of Pkd1^+/+ or Pkd1^+/− mice versus DMSO ([1]; mouse, in vivo): no significant difference
- cell viability (Pkd2^+/− cells): rapid cell death within 24 hours
- calcium release (Fluo-4 fluorescence) (polycystin-2 [2]; Pkd2^−/− cells, 100 nM perfused): no calcium release was detected
- calcium release (Fluo-4 fluorescence) (polycystin-2 [2]; Pkd2 re-expressed (Rex) in Pkd2^−/− background, 100 nM): restored calcium release
- calcium release (Fluo-4 fluorescence) (polycystin-2 [3]): clear rise in intracellular calcium levels
